Laboratory results as given in patent US20260159536A1, “AKR1C3-ACTIVATED DNA ALKYLATING AGENT, AND MEDICAL APPLICATION THEREOF” (ASCENTAWITS PHARMACEUTICALS, LTD., priority 2021, published 2026).

How the values were obtained:
Design in all cases: species or system BALB/c nude mice
[1] = tested on: human liver cancer HepG2 cells; test: In vivo pharmacodynamics, liver cancer HepG2 CDX model
[2] = tested on: HuPrime model LI6280 human liver cancer; test: In vivo pharmacodynamics, liver cancer LI6280 PDX model; details: for Tumor volume: 30 mg/kg p.o.
[3] = tested on: HuPrime model LI1005 human liver cancer; test: In vivo pharmacodynamics, liver cancer LI1005 PDX model; details: for Tumor volume: 30 mg/kg p.o.
[4] = tested on: human liver cancer LI6652; test: In vivo pharmacodynamics, liver cancer LI6652 subcutaneous xenograft PDX model; details: 30 mg/kg p.o. QDx21; Day 28
[5] = tested on: HuPrime model LI6643 human liver cancer; test: In vivo pharmacodynamics, liver cancer LI6643 PDX model (Compound A, Sorafenib, AST-3424; section 4.7); details: for Tumor volume: 30 mg/kg p.o.
[6] = tested on: HuPrime model LI6664 human liver cancer; test: In vivo pharmacodynamics, liver cancer LI6664 PDX model; details: for Size of tumor volume: Group2, Sorafenib 30 mg/kg
[7] = tested on: human liver cancer LI6652; test: In vivo pharmacodynamics, liver cancer LI6652 subcutaneous xenograft PDX model; details: for Tumor volume: 30 mg/kg p.o.
Protocol: The pharmacodynamic analysis of each group in liver cancer LI6652 model was performed on Day 31 after administration, and the results were shown in Table 12.

[8] = tested on: HuPrime model LI6643 human liver cancer; test: In vivo pharmacodynamics, liver cancer LI6643 PDX model (Compound A, Sorafenib; section 4.8); details: for Tumor volume: 20-30 mg/kg p.o.
[9] = 30 mg/kg, QDx21 Days, p.o., Day 53
[10] = 20-30 mg/kg p.o. QD (30 mg/kg day0-day11, 20 mg/kg day 12-day20), Day 35

weight loss ([1]; 30 mg/kg p.o.): caused significant weight loss
weight loss ([6]; treatment period, tested doses): weight loss in individual mice
Compound: CNC(=O)c1cc(Oc2ccc(NC(=O)Nc3ccc(Cl)c(C(F)(F)F)c3)cc2)ccn1 [Sorafenib, reference compound]
Tumor volume ([1]; 30 mg/kg p.o., Day 19): 189.76 mm^3
Tumor volume ([1]; 30 mg/kg p.o., Day 22): 291.62 mm^3
Tumor volume ([1]; 30 mg/kg p.o., Day 24): 311.64 mm^3
Tumor volume ([1]; 30 mg/kg p.o., Day 27): 340.46 mm^3
Tumor volume ([1]; 30 mg/kg p.o., Day 31): 398.84 mm^3
Tumor volume ([1]; 30 mg/kg p.o., Day 36): 491.06 mm^3
Tumor volume ([1]; 30 mg/kg p.o., Day 39): 509.41 mm^3
Tumor volume ([1]; 30 mg/kg p.o., Day 42): 657.51 mm^3
Tumor volume ([1]; 30 mg/kg p.o., Day 46): 816.63 mm^3
Tumor volume ([1]; 30 mg/kg p.o., Day 49): 1012.20 mm^3
Tumor volume ([1]; 30 mg/kg p.o., Day 53): 1484.78 mm^3
T/C (%) [1, 9]: 65.95%
TGI (%) [1, 9]: 34.05%
Tumor volume (x ± S) ([1]; 30 mg/kg, QDx21 Days, p.o., Day 53, in mm³ (unit assumed)): 1484.78 ± 304.89
T/C (%) ([2]; 30 mg/kg p.o. QDx21, Day 17): 49.65%
TGI (%) ([2]; 30 mg/kg p.o. QDx21, Day 17): 50.35%
Tumor volume (x ± S) ([2]; 30 mg/kg p.o. QDx21, Day 17, in mm³ (unit assumed)): 1076.45 ± 230.21
Tumor volume ([2]; Day 0): 103.93 mm^3
Tumor volume ([2]; Day 3): 168.82 mm^3
Tumor volume ([2]; Day 7): 269.83 mm^3
Tumor volume ([2]; Day 10): 439.29 mm^3
Tumor volume ([2]; Day 14): 731.99 mm^3
Tumor volume ([2]; Day 17): 1076.45 mm^3
Tumor volume ([2]; Day 21): 1241.19 mm^3
Tumor volume ([2]; Day 24): 1504.89 mm^3
Tumor volume ([2]; Day 28): 2218.52 mm^3
Tumor volume ([2]; Day 31): 2313.01 mm^3
T/C (%) ([3]; 30 mg/kg p.o. QDx21, Day 35): 28.26%
TGI (%) ([3]; 30 mg/kg p.o. QDx21, Day 35): 71.74%
Tumor volume (x ± S) ([3]; 30 mg/kg p.o. QDx21, Day 35, in mm³ (unit assumed)): 294.09 ± 60.93
Tumor volume ([3]; Day 0): 102.89 mm^3
Tumor volume ([3]; Day 3): 121.64 mm^3
Tumor volume ([3]; Day 7): 136.21 mm^3
Tumor volume ([3]; Day 10): 136.21 mm^3
Tumor volume ([3]; Day 14): 136.89 mm^3
Tumor volume ([3]; Day 17): 140.09 mm^3
Tumor volume ([3]; Day 21): 142.56 mm^3
Tumor volume ([3]; Day 24): 161.17 mm^3
Tumor volume ([3]; Day 28): 200.97 mm^3
Tumor volume ([3]; Day 31): 227.65 mm^3
Tumor volume ([3]; Day 35): 294.09 mm^3
Tumor volume (x ± S) [4]: 315.93 ± 81.35
T/C (%) ([5]; 30 mg/kg p.o. QDx21, Day 21): 37.88%
TGI (%) ([5]; 30 mg/kg p.o. QDx21, Day 21): 62.12%
Tumor volume (x ± S) ([5]; 30 mg/kg p.o. QDx21, Day 21, in mm³): 214.75 ± 31.53
Tumor volume ([5]; Day 0): 124.67 mm^3
Tumor volume ([5]; Day 3): 170.03 mm^3
Tumor volume ([5]; Day 7): 185.13 mm^3
Tumor volume ([5]; Day 10): 193.95 mm^3
Tumor volume ([5]; Day 14): 189.87 mm^3
Tumor volume ([5]; Day 17): 171.25 mm^3
Tumor volume ([5]; Day 21): 214.75 mm^3
Tumor volume ([5]; Day 24): 238.48 mm^3
Tumor volume ([5]; Day 28): 309.08 mm^3
Size of tumor volume ([6]; Day 0): 107.93 mm^3
Size of tumor volume ([6]; Day 4): 170.15 mm^3
Size of tumor volume ([6]; Day 7): 197.93 mm^3
Size of tumor volume ([6]; Day 11): 218.34 mm^3
Size of tumor volume ([6]; Day 14): 321.83 mm^3
Size of tumor volume ([6]; Day 18): 391.52 mm^3
Size of tumor volume ([6]; Day 21): 481.85 mm^3
Size of tumor volume ([6]; Day 25): 730.68 mm^3
Size of tumor volume ([6]; Day 28): 1003.42 mm^3
Size of tumor volume ([6]; Day 32): 1333.07 mm^3
Size of tumor volume ([6]; Day 35): 1595.00 mm^3
Size of tumor volume ([6]; Day 39): 2102.94 mm^3
Size of tumor volume ([6]; Day 42): 2729.04 mm^3
Size of tumor volume ([6]; Day 46): 2892.15 mm^3
Size of tumor volume ([6]; Day 49): 2600.00 mm^3
T/C (%) ([6]; Sorafenib 30 mg/kg, Day 28): 71.01%
TGI (%) ([6]; Sorafenib 30 mg/kg, Day 28): 28.99%
Tumor volume (x ± S) ([6]; Sorafenib 30 mg/kg, Day 28, mean ± standard error, in mm³ (unit assumed)): 1003.42 ± 128.88
T/C (%) ([7]; 30 mg/kg p.o. QDx21, Day 28): 17.04%
TGI (%) ([7]; 30 mg/kg p.o. QDx21, Day 28): 82.96%
Tumor volume ([7]; Day 0): 125.84 mm^3
Tumor volume ([7]; Day 3): 146.95 mm^3
Tumor volume ([7]; Day 7): 196.51 mm^3
Tumor volume ([7]; Day 10): 212.41 mm^3
Tumor volume ([7]; Day 14): 217.19 mm^3
Tumor volume ([7]; Day 17): 191.72 mm^3
Tumor volume ([7]; Day 21): 178.69 mm^3
Tumor volume ([7]; Day 24): 209.42 mm^3
Tumor volume ([7]; Day 28): 315.93 mm^3
Tumor volume ([7]; Day 31): 441.67 mm^3
T/C (%) [8, 10]: 21.81%
Tumor volume (x ± S) [8, 10]: 392.20 ± 64.05
Tumor volume ([8]; Day 0): 126.16 mm^3
Tumor volume ([8]; Day 4): 163.51 mm^3
Tumor volume ([8]; Day 7): 205.85 mm^3
Tumor volume ([8]; Day 11): 235.50 mm^3
Tumor volume ([8]; Day 14): 279.42 mm^3
Tumor volume ([8]; Day 18): 291.41 mm^3
Tumor volume ([8]; Day 21): 287.76 mm^3
Tumor volume ([8]; Day 25): 326.85 mm^3
Tumor volume ([8]; Day 28): 346.56 mm^3
Tumor volume ([8]; Day 32): 385.09 mm^3
Tumor volume ([8]; Day 35): 392.20 mm^3
Tumor volume ([8]; Day 39): 431.87 mm^3
Tumor volume ([8]; Day 42): 451.48 mm^3
Tumor volume ([8]; Day 46): 521.44 mm^3
Tumor volume ([8]; Day 49): 585.72 mm^3
Tumor volume ([8]; Day 53): 622.46 mm^3
